# Reference: patent publication US20240415828A1, “TLR7 AGONIST AND COMBINATIONS FOR CANCER TREATMENT” (BIONTECH SE, priority 2021, published 2024)
# Legend:
# [1] = test system: solid tumor; assay: Clinical trial Part 1A, BNT411 monotherapy dose escalation; assay type: in vivo, human
# Protocol: FIG. 8. Release of certain cytokines from preparations obtained from whole blood of human patients treated with BNT411 at various dose levels. Mean maximum fold change (+SD) calculated from the highest cytokine value observed on day 1 in treatment cycle 1 relative to baseline. IFNα and IL-6 peaked 4 to 8 hours after treatment, IP-10 and TNFa peaked 2.5 to 8 hours after treatment.
# To this end, a trial was designed to assess the safety profile of BNT411 in monotherapy and in combination with atezolizumab, etoposide, and carboplatin (atezo/EC) and to determine the maximum tolerated dose/recommended phase 2 dose (MTD/RP2D). This trial comprised two parts (1A and 1B) with dose escalation, wherein the patients of part 1A received BNT411 monotherapy and patients of part 1B received BNT411 together with atezolizumab, etoposide, and carboplatin. The patients had solid tumor (preferably ES-SCLC for part 1B) and received the drugs according to the following dosing schedule (until disease progression, unacceptable toxicity, or death): • Part 1A: 3-week cycles, BNT411 i.v. Q1W for 4 cycles, then Q3W • Part 1B: 3-week cycles, BNT411 i.v. Q1W for 4 cycles, then Q3W; atezo/EC Q3W
# DL1-DL3 of Part 1A were single-patient cohorts, all other dose levels were 3+3 cohorts.
# Efficacy was assessed by CT/MRI imaging according to RECIST 1.1 and iRECIST every 6 weeks for 48 weeks, and every 12 weeks thereafter. Safety was assessed by physical examination, vital signs, electrocardiogram, clinical laboratory assessments, eye examinations, ECOG, pregnancy testing, and ECHO/MUGA. Biomarker assessments included tumor biopsies and blood sampling for cytokine analysis, immune phenotyping, tumor mutational burden, and TCR profiling.
# As of Aug. 26, 2021, the patients were located in seven trial centers (UK, USA, Spain, Germany). Twenty-five patients were screened (Part 1A: 22; Part 1B: 3) with seven screen failures (all Part 1A). Eighteen patients enrolled (Part 1A: 15; Part 1B: 3), wherein fifteen patients were evaluable (Part 1A: 12; Part 1B: 3). Two Part 1A patients were replaced (at DL1 due to incorrect dosing and at DL5 due to PD before DLT evaluation completed). One Part 1A patient dropped out of trial before receiving treatment.
# The trial population consists of histologically confirmed solid tumor patients with metastatic or unresectable disease for which there is no available standard therapy likely to confer clinical benefit, or patients who are not candidates for such available therapy.
# [2] = test system: Human whole blood; assay: Cytokine release in human whole blood treated in vitro (CBA); assay type: cell-based
# Protocol: FIG. 7. Release of certain cytokines upon treatment of whole blood from human donors with BNT411 at various concentrations. Whole blood drawn from healthy human volunteers was treated in vitro with BNT411 to investigate the induction of the following cytokines/chemokines: IFNα, IP-10, IL-6, and TNFα. BNT411 concentrations ranging from 0.1 nM (1×) to 7.5 μM (75000×). The fold increase to baseline is shown for each cytokine and BNT411 concentration tested.
# After performing a serial dilution of the test compounds (such as BNT411), 5 μL of each sample is transferred/pipetted to single wells of a 96-well-plate. As negative control, plasma which has been prepared from whole blood of each donor is used. Subsequently, 245 μL of RPMI-medium is added to each well, leading to a 1:50 dilution of each sample, named spiking solutions. The heparinized whole blood is pipetted to separate 96-well-plate. After seeding whole blood, the prepared spiking solutions are added: 190 μL of whole blood is seeded in each well and 10 μL of spiking solutions is added to get a final volume of 200 μL per well and additional 1:20 dilution of all samples. Finally, the plates are incubated at 37° C. and 5% CO2. After 24 h incubation the plates are centrifuged at 500×g for 5 min. The plasma of all samples is harvested, transferred to a new 96-well-plate and frozen at −15° C. to −25° C. until performing the CBA, but at least 3 h.
# The CBA is performed with the frozen/thawed plasma samples according to the manufacturer's instructions for ProCarta multiplex kits. For evaluation of cytokine concentrations, assay duplicates of all samples are measured by using the luminex system. After checking standard curves with the instrument control system (Bio-Plex Manager 4.1.1) the raw data are transferred to excel. Graphical analysis is performed with GraphPad Prism 6.
# Human whole blood was obtained from healthy donors and treated in vitro with BNT411 (concentration range: 0.1 nM to […]). 24 h after stimulation secretion of several cytokines, including IFNα, IP-10, IL-6, and TNFα, was analyzed by a multiplexed CBA.
# [3] = Part 1A, patients (%), as of Aug. 26, 2021
# [4] = Part 1A, patients, as of Aug. 26, 2021
structure (smiles),measurement,setting,value
COCCc1nc2c(N)nc3ccccc3c2n1CCCCN(C(C)=O)C1CCOCC1 [BNT411],cytokine changes,"[1]; DL1A, DL2A, or DL3A (0.05-0.45 μg/kg)",No meaningful cytokine changes
same,induction of IFN-a and IP-10,"[1]; DL5 onwards, substantially starting at DL6, data update October 2022",increased
same,IL-6 induction,[1]; DL6A,some increase
same,IP-10 level relative to assay range,[1]; DL6A,upper limit of detection of the assay was reached
same,"induction of IFNa, IP-10, and other mode-of-action relevant cytokines",[1]; DL6A (4.8 μg/kg),substantial induction
same,"tumor response (RECIST 1.1), third patient","[1]; DL7, trial Day 251, still on treatment",partial response
same,"dose limiting toxicity (DLT), or related grade 4-5 AEs",[1]; Part 1A,no
same,"TEAEs related to BNT411 monotherapy: Anaemia, Grade 4",[1]; [3],2 (13%)
same,"TEAEs related to BNT411 monotherapy: Blood bilirubin increased, Grade 4",[1]; [3],1 (7%)
same,"TEAEs related to BNT411 monotherapy: Chills, Grade 4",[1]; [3],2 (13%)
same,"TEAEs related to BNT411 monotherapy: Diarrhoea, Grade 4",[1]; [3],1 (7%)
same,"TEAEs related to BNT411 monotherapy: Fatigue, Grade 4",[1]; [3],1 (7%)
same,"TEAEs related to BNT411 monotherapy: Headache, Grade 4",[1]; [3],1 (7%)
same,"TEAEs related to BNT411 monotherapy: Hyperbilirubinaemia, Grade 4",[1]; [3],1 (7%)
same,"TEAEs related to BNT411 monotherapy: Hypotension, Grade 4",[1]; [3],1 (7%)
same,"TEAEs related to BNT411 monotherapy: Illness, Grade 4",[1]; [3],1 (7%)
same,"TEAEs related to BNT411 monotherapy: Infusion related reaction, Grade 4",[1]; [3],1 (7%)
same,"TEAEs related to BNT411 monotherapy: Nausea, Grade 4",[1]; [3],1 (7%)
same,"TEAEs related to BNT411 monotherapy: Neutropenia, Grade 4",[1]; [3],1 (7%)
same,"TEAEs related to BNT411 monotherapy: Pruritus, Grade 4",[1]; [3],1 (7%)
same,"TEAEs related to BNT411 monotherapy: Pyrexia, Grade 4",[1]; [3],3 (20%)
same,"TEAEs related to BNT411 monotherapy: Total number of patients with TEAEs, Grade 4",[1]; [3],7 (47%)
same,"TEAEs related to BNT411 monotherapy: Anaemia, Grade 1",[1]; [4],1
same,"TEAEs related to BNT411 monotherapy: Anaemia, Grade 3",[1]; [4],1
same,"TEAEs related to BNT411 monotherapy: Blood bilirubin increased, Grade 1",[1]; [4],1
same,"TEAEs related to BNT411 monotherapy: Chills, Grade 1",[1]; [4],2
same,"TEAEs related to BNT411 monotherapy: Diarrhoea, Grade 2",[1]; [4],1
same,"TEAEs related to BNT411 monotherapy: Fatigue, Grade 2",[1]; [4],1
same,"TEAEs related to BNT411 monotherapy: Headache, Grade 1",[1]; [4],1
same,"TEAEs related to BNT411 monotherapy: Hyperbilirubinaemia, Grade 1",[1]; [4],1
same,"TEAEs related to BNT411 monotherapy: Hypotension, Grade 1",[1]; [4],1
same,"TEAEs related to BNT411 monotherapy: Illness, Grade 1",[1]; [4],1
same,"TEAEs related to BNT411 monotherapy: Infusion related reaction, Grade 2",[1]; [4],1
same,"TEAEs related to BNT411 monotherapy: Nausea, Grade 1",[1]; [4],1
same,"TEAEs related to BNT411 monotherapy: Neutropenia, Grade 1",[1]; [4],1
same,"TEAEs related to BNT411 monotherapy: Pruritus, Grade 1",[1]; [4],1
same,"TEAEs related to BNT411 monotherapy: Pyrexia, Grade 1",[1]; [4],1
same,"TEAEs related to BNT411 monotherapy: Pyrexia, Grade 2",[1]; [4],2
same,safety profile,"[1]; all doses tested as of Aug. 26, 2021 (up to DL6)",acceptable safety profile
same,time of IFNa and IL-6 peak after treatment,"[1]; day 1, treatment cycle 1",4 to 8 h
same,time of IP-10 and TNFa peak after treatment,"[1]; day 1, treatment cycle 1",2.5 to 8 h
same,"AEs related to BNT411 monotherapy: chills, share of patients","[1]; grade 1, Part 1A DL1 and DL6",13%
same,"AEs related to BNT411 monotherapy: pyrexia, share of patients","[1]; grades 1 and 2, Part 1A DLs 1*, 2, and 6",20%
same,"AEs related to BNT411 monotherapy: anaemia, share of patients","[1]; grades 1 and 3, Part 1A DL4 and DL5",13%
same,"tumor response (RECIST 1.1), second patient","[1]; intermediate dose level between DL6 and DL7, as of Day 420",stable disease
same,"change in sum of target lesion diameters compared with baseline, second patient","[1]; intermediate dose level between DL6 and DL7, trial Day 86",−26.2%
same,cytokine release,"[1]; ten patients, DL4A, DL5A, DL6A",dose-dependent cytokine release
same,serious adverse events with a possible causal relationship to BNT411 monotherapy,"[1]; two cases of infusion-related reaction, grades 1 and 2, same patient, Part 1A DL6",Two
same,"tumor response (RECIST 1.1), patient started at DL4, increased to DL5 (C8D1) and DL6 (C12D1)","[1]; until trial Day 449, cutoff Oct. 13, 2022",stable disease
same,overall safety profile,"[1]; up to DL6, data update October 2022",acceptable overall safety profile
same,TNFa induction levels,[1]; up to DL6A,remained unchanged
same,"concentrations required for inducing secretion of pyrogenic proinflammatory cytokines (e.g., TNFα) relative to IFNα",[2]; FIG. 7,up to two orders of magnitude higher
same,"IFNα secretion induced at fold lower concentrations than needed for induction of IL-6, TNFα, and IL-10","[2]; human whole blood, 24 h",5- to 25 fold
same,"concentration at which IL-6, TNFa and IL-10 start to be induced","[2]; human whole blood, 24 h",about 0.06 μM
same,concentration at which significant IFNα release was induced,"[2]; human whole blood, 24 h",0.012 µM
same,"concentration for maximal induction of IFNα, fold lower than for maximal induction of IL-6, TNFα, and IL-10","[2]; human whole blood, 24 h",25- to 100 fold
